Laboratory results from patent publication US7795252B2, “Rapamycin analogues and the uses thereof in the treatment of neurological, proliferative, and inflammatory disorders” (Pfizer Inc., priority 2004, dated 2010).

Tests used:
[1] = tested on: breast tumor cell line MDA468 (PTEN-mutated); assay: cell-based proliferation assay (MTS), MDA468
Procedure: (§1) In this assay, a cell-based proliferation assay was performed to evaluate the compounds of the invention in inhibiting growth of cells including the breast tumor cell line MDA468 (PTEN-mutated) ATCC No. HTB-132 or prostate tumor cell line LNCap (PTEN-mutated) ATCC CRL-1740. • (i) On day one, cells were plated in 96-well culture plates. • (ii) On day two, compounds were added to cells at a predetermined concentration. • (iii) On day five, cell proliferation was measured by standard MTS assay protocol as described in S A O'Toole et al., Cancer Detection and Prevention, 27(1), 2003. Results were recorded by A490 absorbance using a 96-well format platereader. • (iv) The MTS results (A490 units) from compound-treated wells were then calculated as % control growth relative to the control (untreated) wells on the same culture plate.

[2] = tested on: Dissociated cortical neuron cultures; assay: cortical neuron assay (neurite outgrowth); format: cell-based; conditions: Cortical neurone, rat E15 cortical neurons, compound for 72 hours, read-out: EC50 in cortical neuron assays
Procedure: Dissociated cortical neuron cultures were prepared as previously described (Pong et al., 2001). Briefly, embryonic day 15 rat fetuses were collected and dissected in ice-cold PBS. Dissected cortices were pooled together and transferred to an enzymatic dissociation medium containing papain. After 30 minutes, the tissue was mechanically triturated with a fire-polished glass Pasteur pipette. Single-cell suspensions in complete media were seeded on poly-L-ornithine and laminin coated 96-well plates. After 24 hours, cultures were treated with various concentrations of compound for 72 hours. The cultures were then fixed and stained with an anti-tubulin primary antibody (TUJ-1) and a fluorescent-tagged secondary antibody. Neurite outgrowth was determined by using the Enhanced Neurite Outgrowth (ENO) algorithm with the Cellomics ArrayScan and expressed as average neurite length or total neurite length per cell.

human CD4+ T cells [3] = assay: Anti-CD3/-CD28 stimulation and IL-2 re-stimulation assay; format: cell-based
Procedure: (§2) In the following assays, human CD4+ T cells were purified by negative selection from peripheral blood lymphocytes using RosetteSep as per manufacture's instructions (StemCell Technologies, Inc. Vancouver, British Columbia).
Tosyl-activated magnetic microspheres (Dynal, Great Neck, N.Y.) were coated with anti-CD3 Ab (1 μg/10^7 microspheres), and anti-CD28Ab (0.5 μg/10^7 microspheres) as described in Blair et al. J. Immunol., 160:12, 1998. Murine IgG was used to saturate the binding capacity of the microspheres (total protein=5 μg/10^7 microspheres). Protein-coated microspheres were added to purified CD4+ T cells (2×10^6 cells/mL, ratio 1 bead: 1 cell) and activated for 72 hours in RPMI, 10% fetal calf serum, 2 mM glutamine media. Cells were harvested, washed, and cultured overnight in fresh media and re-stimulated with IL-2 as described in Bennett et al., J. Immunol. 170:711, 2003. Briefly, overnight rested cells were recounted, plated (10^5 cells/well) in flat-bottomed 96 well microtiter plates and stimulated with 1 ng/mL human IL-2 (R&D Systems, Minneapolis, Minn.) in the presence of increasing concentrations of compound. Seventy-two hours after culture re-stimulation, plates were pulsed with 1 μCi/well tritiated thymidine and incubated for a 6-16 hour period.

[4] = tested on: Mesencephalic dopaminergic neuron cultures; assay: dopaminergic (3H-dopamine) uptake assay after MPP+ exposure; format: cell-based; conditions: Neuron, rat E15 mesencephalic dopaminergic neurons, read-out: EC50 in dopaminergic uptake assays
Procedure: Mesencephalic dopaminergic neuron cultures were prepared as described in Pong et al., J. Neurochem. 69: 986-994, 1997, which is incorporated herein by reference in its entirety. Embryonic day 15 (E15) rat fetuses were collected and dissected in ice-cold phosphate-buffered saline (PBS). The ventral piece of tissue compromising the mesencephalic dopaminergic region was dissected out. Dissected pieces of tissue were pooled together and transferred to an enzymatic dissociation medium containing 20 IU/mL papain in Earle's balanced salt solution (Worthington Biochemical, Freehold, N.J., USA) and incubated for 60 minutes at 37° C. After enzymatic dissociation, the papain solution was aspirated and the tissue mechanically triturated with a fire-polished glass Pasteur pipette in complete medium (equal volumes of minimum essential medium (MEM) and F-12 nutrient mixture (GibcoBRL) supplemented with 0.1 mg/mL apotransferrin and 2.5 μg/mL insulin) containing 2,000 IU/mL DNase and 10 mg/mL ovomucoid protease inhibitor.
For dopamine uptake experiments, single-cell suspensions in complete media were seeded on poly-L-ornithine and laminin coated 24-well plates. The cultures were maintained for seven days prior to experimentation. Cultures were pretreated with various concentrations of the compound for 24 hours, then exposed to 10 mM MPP+ for 1 hour. Following the 1 hour incubation, media was exchanged three times and fresh compound was added for an additional 48 hours.
After 48 hours growth of mesencephalic dopaminergic neuron cultures following MPP+ exposure, high-affinity 3H-dopamine uptake was performed using a modified method described by Prochiantz et al., Nature 293: 570-572, 1981, which is incorporated herein by reference. Cultures were washed with pre-warmed PBS containing 5.6 mM glucose and 1 mM ascorbic acid. Cultures were then incubated for 15 minutes at 37° C. with 50 nM 3H-dopamine (31 Ci/mmol, DuPont-NEN, Wilmington, Del., USA). The cultures were washed twice with buffer and lysed with 0.5 N NaOH. The lysate was transferred to a scintillation vial containing Ultima Gold scintillation cocktail and radioactivity was determined with a liquid scintillation counter. Alternatively, culture lysates can be washed twice with buffer, incubated for 2 hours at room temperature with Optiphase Supermix scintillation cocktail (Wallac Scintillation Products, Gaithersburg, Md., USA), and radioactivity measured with a liquid scintillation counter.

[5] = tested on: prostate tumor cell line LNCap (PTEN-mutated); assay: cell-based proliferation assay (MTS), LNCap; conditions: Homo sapiens
Procedure: as §1

[6] = tested on: Spinal cord neuron cultures; assay: spinal cord neuron assay; format: cell-based; conditions: rat E15 spinal cord neurons, compound for 72 h, read-out: EC50 in spinal cord neuron assays
Procedure: Spinal cord neuron cultures were prepared from embryonic day 15 (E15) rat embryos (Sprague-Dawley, Charles River Laboratories, Wilmington, Mass.). The embryos were collected and their spinal cords were removed in ice-cold phosphate-buffered saline (PBS) without Ca^2+ and Mg^2+. Dissected pieces of spinal cord tissue were pooled together and transferred to an enzymatic dissociation media containing 20 IU/mL papain in Earle's balanced salt solution (Worthington Biochemical, Freehold, N.J.) and incubated for 30 minutes at 37° C. After enzymatic dissociation, the papain solution was aspirated and the tissue mechanically triturated with a fire-polished Pasteur pipette in complete media [Neurobasal Medium with B-27 supplement (Gibco, Grand Island, N.Y.), 100 IU/mL penicillin, 100 μg/mL streptomycin, 3.3 μg/mL aphidicolin, 0.5 mM glutamate] containing 2,000 IU/mL DNase and 10-mg/mL ovomucoid protease inhibitor. Single-cell suspensions in complete media were plated on pre-coated poly-L-ornithine/laminin 96-well plates (Becton-Dickinson, Bedford, Mass.) at a density of 1.0×10^4 cells/well. Spinal cord neurons were maintained for 24 h then exposed to vehicle or various concentrations of compound for 72 h.

human CD4+ T cells [7] = assay: PMA/ionomycin activation assay; format: cell-based; conditions: CD4+ T cells stimulated with PMA and ionomycin, tritiated thymidine incorporation, read-out: EC50, inhibition of proliferation
Procedure: as §2
Proliferation of the compounds was determined using this assay. CD4+ T cells (5×10^5 cells/well) were plated in flat bottomed 96 well microtiter plates in RPMI, 10% fetal calf serum, 2 mM glutamine media and stimulated with PMA (10 ng/mL) and ionomycin (200 ng/mL) in the presence of increasing concentration of compound. Seventy-two hours after activation, 100 μL of culture media was collected for IL-2 determination, an additional 100 μL fresh media was added to each well and cultures labeled with tritiated thymidine (1 μCi/well) for 6 hours. Cultures were harvested and tritiated thymidine incorporation (count per minute, CPM) assessed using a Trilux (Perkin Elmer, Shelton, Conn.). IL-2 production was determined using an ELISA as per manufacture's instructions (R&D Systems, Minneapolis, Minn.).

- IC50 [1]: < 10 nM
- IC50 (human CD4+ T cells [3]; CD4+ T cells activated with anti-CD3/anti-CD28, re-stimulated with 1 ng/mL human IL-2, read-out: IC50, inhibition of IL-2 production): < 1000 nM
- EC50 [4]: < 1000 nM
- IC50 [5]: < 10 nM
- EC50 [6]: < 1000 nM
Compound: CO[C@H]1C[C@@H]2CC[C@@H](C)[C@@](O)(O2)C(=O)C(=O)N2CCCC[C@H]2C(=O)O[C@H]([C@H](C)C[C@@H]2CC[C@@H](O)[C@H](OC)C2)CC(=O)[C@H](C)/C=C(\C)[C@@H](O)[C@@H](OC)C(=O)[C@H](C)C[C@H](C)[C@@H]2C=C[C@H](/C=C/1C)ON2c1ccccc1 [Example 1, 9,27-dihydroxy-3-{2-[4-hydroxy-3-methoxycyclohexyl]-1-methylethyl}-10,21-dimethoxy-6,8,12,14,20,26-hexamethyl-37-phenyl-4,9,10,12,13,14,15,18,21,22,23,24,25,26,27,32,33,34,34a-nonadecahydro-3H-23,27-epoxy-18,15-(epoxyimino)pyrido[2,1-c][1,4]oxazacyclohentriacontine-1,5,11,28,29(6H,31H)-pentone]
- EC50 [2]: < 1000 nM
- IL-2 production compared with rapamycin and CCI-779 (human CD4+ T cells [3]; CD4+ T cells, IL-2 re-stimulation): commensurate
- EC50 (human CD4+ T cells [7]): 200 to 4900 nM
